The values that follow come from patent US5624923A, “Tricyclic diazepine vasopressin antagonists and oxytocin antagonists” (priority 1995, dated 1997).

The target in assay [1] is T1, Rat Kidney Medullary V2 Receptors (Rattus norvegicus, UniProt Q00788).
T1 construct: Medullary tissues from rat kidneys are dissected out; from tissue; host or cells: rat kidney medulla membranes
Briefly: Binding Assay to Rat Kidney Medullary V2 Receptors. The conditions noted are these: for IC50: rat kidney medulla membranes, read-out: V2 IC50; for inhibition at 10 µM: rat. The essentials:
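Membranes were prepared from rat kidney medulla and stored in 50.0 mM Tris-HCl pH 7.4 with 0.2% BSA and 0.1 mM PMSF. Radioligand competition ran 120 min at bench temperature, with 1.0 μM unlabeled ligand defining nonspecific binding. Compounds were added in 50% DMSO; filtration, tritium scintillation counting, IC50 from competition analysis.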

A further assay has as its system Vasopressin V2. Briefly: Vasopressin V2 Antagonist Activity in Conscious Hydrated Rats. In kind it is in vivo, rat. The conditions noted are these: 10 mg/kg orally, AVP 0.4 μg/kg i.p. The essentials: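 Four-hour urine output, osmolality and electrolytes (Na+, K+, Cl−) recorded in water-loaded rats (30 mL/kg deionized water orally) given AVP i.p. at 0.4 μg/kg. Test compounds were given orally at 0.1–100 mg/kg 1 h before AVP; 2–4 rats per compound.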

Another assay concerns the target T2, oxytocin receptors (Rattus norvegicus, UniProt P70536).
T2 construct: The uteri are dissected out, cleaned of fat and connective tissues; from tissue; host or cells: uterus of DES-treated female Sprague-Dawley rats
T2 sequence (P70536 1-388): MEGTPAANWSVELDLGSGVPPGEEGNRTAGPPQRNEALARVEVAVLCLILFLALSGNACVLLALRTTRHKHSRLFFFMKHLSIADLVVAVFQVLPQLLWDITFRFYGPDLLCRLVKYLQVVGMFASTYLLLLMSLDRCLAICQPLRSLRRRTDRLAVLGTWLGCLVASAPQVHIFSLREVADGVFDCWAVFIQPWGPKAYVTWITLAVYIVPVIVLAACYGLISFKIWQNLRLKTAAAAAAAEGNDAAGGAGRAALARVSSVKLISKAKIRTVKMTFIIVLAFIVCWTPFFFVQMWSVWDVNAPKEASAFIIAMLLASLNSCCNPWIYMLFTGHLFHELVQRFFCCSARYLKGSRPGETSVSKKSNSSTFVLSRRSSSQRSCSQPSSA
Nature of the assay: Oxytocin Receptor Binding. The note with it: for IC50: 1.0 nM [3H]oxytocin; for inhibition at 10 µM: [3H]oxytocin. The method in brief:
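Membranes from uteri of DES-primed (0.3 mg/kg i.m., 18 h) female Sprague-Dawley rats. Competition with 1.0 nM [3H]oxytocin in 50 mM Tris.HCl pH 7.4, 5 mM MgCl2 with protease inhibitors, 60 min at 22 °C, filtration read-out. Non-specific binding with 1.0 uM unlabeled OT; IC50 calculated.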

Structures are written as SMILES.

T1 sequence (Q00788 whole entry): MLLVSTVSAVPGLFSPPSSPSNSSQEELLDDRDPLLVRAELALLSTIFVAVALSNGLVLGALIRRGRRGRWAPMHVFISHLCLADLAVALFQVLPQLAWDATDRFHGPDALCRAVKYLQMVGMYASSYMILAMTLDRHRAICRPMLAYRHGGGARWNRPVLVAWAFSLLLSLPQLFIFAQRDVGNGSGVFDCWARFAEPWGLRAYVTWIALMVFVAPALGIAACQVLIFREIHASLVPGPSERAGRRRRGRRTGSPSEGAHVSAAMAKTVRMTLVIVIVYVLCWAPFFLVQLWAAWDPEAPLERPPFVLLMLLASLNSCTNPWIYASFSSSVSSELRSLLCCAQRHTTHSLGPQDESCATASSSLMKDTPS

As for `Cc1cccc(NC(=O)c2ccc(C(=O)N3Cc4cccn4Cc4ccccc43)cc2)c1C` [Example 485, N-(2,3-Dimethylphenyl)-4-(5H-pyrrolo[2,1-c][1,4]benzodiazepin-10(11H)-ylcarbonyl)benzamide], the IC50 in assay [1] came to 0.013 µM. Moreover, in the assay on Vasopressin V2, the Osmolality is reported as 961 mOsm/kg and the “Urine Volume” value amounted to 4 ml/4 hrs. Besides, on oxytocin receptors, the concentration for half-maximal inhibition (IC50) is 2.2 µM and 10 µM produced 86% inhibition.
Compound `COC(=O)c1ccc(C(=O)Nc2ccc(C(=O)N3Cc4cccn4Cc4ccccc43)cc2)cc1` [Example 489] returned an inhibition at 10 µM in assay [1] of 82%. In the assay with Vasopressin V2, the Osmolality came out at 1194 mOsm/kg and the “Urine Volume” value is reported as 6.1 ml/4 hrs. In addition, testing at 10 µM at oxytocin receptors gave an inhibition of 44%.
As to `CN(C)CN(C(=O)c1ccc(Cl)cc1Cl)c1ccc(C(=O)N2Cc3cccn3Cc3ccccc32)cc1` [Example 490, N-[(Dimethylamino)methyl]-N-[4-(5H-pyrrolo[2,1-c][1,4]benzodiazepin-10(11H)-ylcarbonyl)phenyl]-2,4-dichlorobenzamide], in assay [1], the IC50 is 0.005 µM. In the assay on Vasopressin V2, the Osmolality was found to be 487 ± 38 mOsm/kg and the “Urine Volume” value is 71.5 ± 1.6 ml/4 hrs. For the same compound, on oxytocin receptors, the half-maximal inhibitory concentration (IC50) is 0.3 µM and 10 µM produced 99% inhibition.
In the same order, the values of `Cc1c(F)cccc1C(=O)Nc1ccc(C(=O)N2Cc3ccnn3Cc3ccccc32)cc1` [Example 517, N-[4-(4H-Pyrazolo[5,1-c][1,4]benzodiazepin-5(10H)-ylcarbonyl)phenyl]-3-fluoro-2-methylbenzamide] are 0.015 µM, 411 mOsm/kg, 14.7 ml/4 hrs, 0.32 µM and 91%.
In the same order, the values of `Cc1ccccc1C(=O)Nc1ccc(C(=O)N2Cc3cccn3Cc3ccccc32)cc1Cl` [Example 530, N-[4-(5H-Pyrrolo[2,1-c][1,4]benzodiazepin-10(11H)-ylcarbonyl)-2-chlorophenyl]-2-methylbenzamide] are 0.0037 µM, 914 mOsm/kg, 6 ml/4 hrs, 0.31 µM and 99%.
In the same order, the values of `O=C(Nc1ccc(C(=O)N2Cc3ccc(CO)n3Cc3ccccc32)cc1)c1ccc(Cl)cc1Cl` [Example 581, 2,4-Dichloro-N-[4-[[3-(hydroxymethyl)-5H-pyrrolo[2,1-c][1,4]benzodiazepin-10(11H)-yl]carbonyl]phenyl]benzamide] are 0.0053 µM, 941 ± 219 mOsm/kg, 4 ± 1.2 ml/4 hrs, 0.2 µM and 99%.
Regarding `O=C(Nc1ccc(C(=O)N2Cc3ccc(Cn4ccnc4)n3Cc3ccccc32)cc1)c1ccc(Cl)cc1Cl` [Example 582, 2,4-Dichloro-N-[4-[[3-(1H-imidazol-1-ylmethyl)-5H-pyrrolo[2,1-c][1,4]benzodiazepin-10(11H)-yl]carbonyl]phenyl]benzamide], the IC50 in assay [1] is 0.014 µM. In the assay on Vasopressin V2, the Osmolality is on record as 604 mOsm/kg and the “Urine Volume” value is reported as 9.5 ml/4 hrs. On oxytocin receptors, this compound came in with an IC50 of 0.675 µM and an inhibition at 10 µM of 96%.
Taken in the same sequence, the figures for `NC(=O)CNC(C(=O)Nc1ccc(C(=O)N2Cc3cccn3Cc3ccccc32)cc1)c1ccccc1` (stereo not drawn) [Example 585] were 0.083 µM, 1483 mOsm/kg, 3.3 ml/4 hrs, 4.7 µM and 70%.
For `CC(=O)OC(C(=O)Nc1ccc(C(=O)N2Cc3cccn3Cc3ccccc32)cc1)c1ccccc1` (stereo not drawn) [Example 587, α-(Acetyloxy)-N-[4-(5H-pyrrolo[2,1-c][1,4]benzodiazepin-10(11H)-ylcarbonyl)phenyl]benzeneacetamide], the half-maximal inhibitory concentration (IC50) in assay [1] came out at 0.022 µM. In the assay on Vasopressin V2, the Osmolality was 868 mOsm/kg and the “Urine Volume” value was 9 ml/4 hrs. At oxytocin receptors, this compound came in with an IC50 of 8 µM and an inhibition at 10 µM of 56%.
Consider `O=C(CN1CCOCC1)Nc1ccc(C(=O)N2Cc3cccn3Cc3ccccc32)cc1` [Example 590, N-[4-(5H-pyrrolo[2,1-c][1,4]benzodiazepin-10(11H)-ylcarbonyl)phenyl]-4-morpholineacetamide], for which, in assay [1], testing at 10 µM gave an inhibition of 81%. In the assay on Vasopressin V2, the Osmolality stood at 1355 mOsm/kg and the “Urine Volume” value was 3 ml/4 hrs. For the same compound, the inhibition at 10 µM at oxytocin receptors is 12%.
`COC(=O)c1ccc2n1Cc1ccccc1N(C(=O)c1ccc(NC(=O)c3ccc(Cl)cc3Cl)cc1)C2` [Example 593]: in assay [1], the IC50 came out at 0.042 µM. In the assay on Vasopressin V2, the Osmolality was found to be 577 mOsm/kg and the “Urine Volume” value came out at 11.8 ml/4 hrs. At oxytocin receptors, this compound came in with an IC50 of 1.1 µM and an inhibition at 10 µM of 82%.
Turning to `O=C(Nc1ccc(C(=O)N2Cc3ccc(C(=O)C(F)(F)F)n3Cc3ccccc32)cc1)c1ccccc1C(F)(F)F` [Example 594], the inhibition at 10 µM in assay [1] worked out at 23%; on oxytocin receptors, 19%. In the assay with Vasopressin V2, this compound registered an Osmolality of 1172 ± 182 mOsm/kg. In addition, the “Urine Volume” value in the assay with Vasopressin V2 was 4.9 ± 1.2 ml/4 hrs.
Taken in the same sequence, the figures for `Cc1ccccc1C(=O)Nc1ccc(C(=O)N2Cc3ccc(C(=O)C(F)(F)F)n3Cc3ccccc32)c(Cl)c1` [Example 595, N-[4-[[3-(Trifluoroacetyl)-5H-pyrrolo[2,1-c][1,4]benzodiazepin-10(11H)-yl]carbonyl]-3-chlorophenyl]-2-methylbenzamide] were 93%, 49%, 1474 mOsm/kg and 8.3 ml/4 hrs.
Consider `O=C(Nc1ccc(C(=O)N2Cc3cccn3Cc3ccccc32)cc1)c1cc(Cl)cc(Cl)c1Cl` [Example 599, N-[4-(5H-Pyrrolo[2,1-c][1,4]benzodiazepin-10(11H)-ylcarbonyl)phenyl]-2,3,5-trichlorobenzamide], for which the IC50 in assay [1] came to 0.014 µM. Further, in the assay with Vasopressin V2, the Osmolality is on record as 407 mOsm/kg and the “Urine Volume” value is listed as 18 ml/4 hrs. In addition, on oxytocin receptors, the IC50 was 0.35 µM and the inhibition at 10 µM stood at 92%.

One may read the IC50 as the concentration that inhibits the measured activity by half. What is called inhibition is the relative decrease from the control value, in per cent. Low readings indicate a weak effect, high ones a strong effect.
